Six compounds from US12638438B2, “Screening methods using canine T2R receptors and pet food products and compositions identified using the same” (MARS, INCORPORATED, priority 2015, dated 2026) can be followed below.

In experiment [1] the target is T1, canine T2R1 (Canis lupus, UniProt Q2ABE0).
T1 sequence (Q2ABE0 1-297): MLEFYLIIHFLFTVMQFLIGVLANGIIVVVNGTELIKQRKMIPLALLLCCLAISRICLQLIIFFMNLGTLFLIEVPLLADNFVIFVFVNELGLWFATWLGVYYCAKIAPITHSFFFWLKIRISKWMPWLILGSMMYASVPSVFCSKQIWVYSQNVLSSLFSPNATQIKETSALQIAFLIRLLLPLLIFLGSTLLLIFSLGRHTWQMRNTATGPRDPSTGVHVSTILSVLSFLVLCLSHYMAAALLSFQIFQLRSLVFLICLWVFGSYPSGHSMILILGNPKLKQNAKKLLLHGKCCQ
The experiment is described as follows: Canine T2R1 activation, intracellular calcium assay in transiently transfected HEK293 cells, dose response (FIG. 3E). It counts as cell-based. From the text: FIGS. 2A-2C show canine T2R sequence alignments. The dashed grey arrows indicate active site positions occupied by mostly asparagine or serine residues. The solid black arrows indicate structural tryptophan residues that are present in all human and cat bitter receptors as well as all canine bitter receptors except T2R12. The dashed black arrows indicate the conserved asparagine which is present in most of the bitter receptors. The conjoined solid arrows indicate the conserved LxxxR motif (IxxxR for some instances in T2R2), wherein x can be any amino acid. […] Asn89 can potentially make a hydrogen bond interaction with the ligand. Other residues that can potentially make hydrogen bonding interactions, pi interactions, or charged interactions with the ligand include Tyr239.
(§1) No wash step was required for the luminescent protocol.

For experiment [2], the target named is T2, canine T2R3 (Canis lupus, UniProt Q2ABD8).
T2 sequence (Q2ABD8 1-316): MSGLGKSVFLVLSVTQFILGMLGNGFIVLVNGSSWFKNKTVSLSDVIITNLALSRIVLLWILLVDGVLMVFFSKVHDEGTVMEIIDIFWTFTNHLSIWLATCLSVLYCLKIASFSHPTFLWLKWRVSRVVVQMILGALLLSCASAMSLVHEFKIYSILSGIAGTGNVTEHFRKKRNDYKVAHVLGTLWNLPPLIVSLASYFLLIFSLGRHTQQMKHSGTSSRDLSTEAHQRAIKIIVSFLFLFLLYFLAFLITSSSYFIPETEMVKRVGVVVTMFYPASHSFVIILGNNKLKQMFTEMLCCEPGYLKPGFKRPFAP
Kind of experiment: Canine T2R3 activation, intracellular calcium assay in transiently transfected HEK293 cells, dose response (FIG. 5E). It counts as cell-based. The following applies: agonist; HEK293 transient, cT2R3 (SEQ ID NO:19); calcium fluorescence or luminescence, FLIPR Tetra; at least 8 concentrations in triplicate.
Excerpt: Residues that can make hydrogen bonding or charged interactions with the ligand include Asn93 and Asp86. […] Additional residues making primarily van der Waals interactions with the ligand include Phe250, Gly185, Phe243, Thr90, Asn176, Val149, Ile154, Lys174, Met82, Ile85, Lys173, and Met69.
as §1

The target in experiment [3] is T3, canine T2R10 (Canis lupus, UniProt Q2ABD4).
T3 sequence (Q2ABD4 1-322): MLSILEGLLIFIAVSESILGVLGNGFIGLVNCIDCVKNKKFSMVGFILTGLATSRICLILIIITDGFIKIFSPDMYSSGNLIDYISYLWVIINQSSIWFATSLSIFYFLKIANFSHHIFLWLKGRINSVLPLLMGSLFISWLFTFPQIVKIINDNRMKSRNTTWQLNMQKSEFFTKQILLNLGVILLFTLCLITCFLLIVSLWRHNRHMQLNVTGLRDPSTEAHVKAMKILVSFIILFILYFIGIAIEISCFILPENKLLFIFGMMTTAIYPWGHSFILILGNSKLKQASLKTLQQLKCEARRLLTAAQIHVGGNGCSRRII
The experiment is described as follows: Canine T2R10 activation, intracellular calcium assay in transiently transfected HEK293 cells, dose response (FIG. 8E). The following applies: agonist; HEK293 transient, cT2R10 (SEQ ID NO:23); calcium fluorescence or luminescence, FLIPR Tetra; at least 8 concentrations in triplicate. It counts as cell-based.
Excerpt: Lys258 and Leu180 (backbone) can potentially make hydrogen bonds with the ligand.
as §1

Experiment [4] concerns the target T4, canine T2R2 (Canis lupus, UniProt Q2ABD9).
T4 sequence (Q2ABD9 1-303): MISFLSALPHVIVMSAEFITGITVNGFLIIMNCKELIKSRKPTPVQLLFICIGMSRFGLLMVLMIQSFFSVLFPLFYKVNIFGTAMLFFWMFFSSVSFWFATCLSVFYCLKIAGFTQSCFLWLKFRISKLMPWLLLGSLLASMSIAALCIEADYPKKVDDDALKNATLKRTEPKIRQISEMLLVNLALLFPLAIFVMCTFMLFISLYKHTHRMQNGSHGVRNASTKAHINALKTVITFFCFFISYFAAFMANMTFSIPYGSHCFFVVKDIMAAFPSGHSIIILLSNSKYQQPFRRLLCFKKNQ
Kind of experiment: Canine T2R2 activation, intracellular calcium assay in transiently transfected HEK293 cells, dose response (FIG. 4E). As to conditions: agonist; HEK293 transient, cT2R2 (SEQ ID NO:18); calcium fluorescence or luminescence, FLIPR Tetra; at least 8 concentrations in triplicate. It counts as cell-based.
Excerpt: Residues that can potentially make hydrogen bond or salt bridge interactions with the ligand include Ser94, Trp90, Lys268, Tyr245, and Glu180.
as §1

Experiment [5] has as its target T5, canine T2R5 (Canis lupus, UniProt Q2ABD6).
T5 sequence (Q2ABD6 1-295): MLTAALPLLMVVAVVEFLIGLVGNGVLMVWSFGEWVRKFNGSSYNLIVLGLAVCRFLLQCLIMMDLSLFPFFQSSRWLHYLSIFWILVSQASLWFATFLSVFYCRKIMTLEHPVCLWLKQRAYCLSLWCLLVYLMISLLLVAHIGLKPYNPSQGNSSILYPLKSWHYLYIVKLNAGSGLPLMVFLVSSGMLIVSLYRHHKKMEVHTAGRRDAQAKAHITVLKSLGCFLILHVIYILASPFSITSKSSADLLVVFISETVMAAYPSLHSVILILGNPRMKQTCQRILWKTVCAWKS
The experiment is described as follows: Canine T2R5 activation, intracellular calcium assay in transiently transfected HEK293 cells, dose response (FIG. 7E). It counts as cell-based.
Excerpt: There is a potential hydrogen bond between Ser89 and each nitrogen of 1, 10 Phenanthroline. Additional residues that can potentially make van der Waals or Pi interactions with the ligand include Pro264, Leu58, Val88, Gln90, Ile86, Leu173, Trp165, Thr258, Ala261, Tyr234, Glu257, Met260, and Trp85.
as §1
For orientation: A change in cytosolic calcium serves as a functional read-out for many receptors and channels.

The target of experiment [6] is canine T2R43 (Canis lupus, UniProt A0A8I3S925). The experiment is described as follows: cell-based.
Sequence of canine T2R43 (A0A8I3S925 1-349): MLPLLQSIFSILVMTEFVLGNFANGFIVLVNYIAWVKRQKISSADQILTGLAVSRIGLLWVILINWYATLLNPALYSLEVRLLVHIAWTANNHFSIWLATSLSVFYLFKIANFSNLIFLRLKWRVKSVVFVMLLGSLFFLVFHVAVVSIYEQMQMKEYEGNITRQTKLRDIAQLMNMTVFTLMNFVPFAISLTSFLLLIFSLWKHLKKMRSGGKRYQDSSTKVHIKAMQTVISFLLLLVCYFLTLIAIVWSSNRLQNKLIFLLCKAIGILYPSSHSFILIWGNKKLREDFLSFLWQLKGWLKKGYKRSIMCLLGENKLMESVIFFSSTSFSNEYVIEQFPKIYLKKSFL
Method: In vitro functional characterization of the selected modulators was used to evaluate the effectiveness of the putative modulator compounds in modulating the activation of the bitter taste receptors.
HEK293 cells that transiently expressed a canine bitter taste receptor selected from canine T2R1, T2R2, T2R3, T2R4, T2R5, T2R10, and T2R43, were exposed to compounds to determine whether the compounds modulated the activity of the bitter taste receptors.
All transient transfections were performed with Lipofectamine2000 (Invitrogen) according to the manufactures protocol. 10 μl Lipofectamine2000 were diluted in 500 μl DMEM (Life Technologies) and incubated for 5 minutes at room temperature. […] At 27 to 30 hours post-transfection the medium was removed from the cells and 20 μl loading buffer that included a calcium sensitive fluorescent dye or luminescent substrate (Tyrode's buffer+2 μM Fluo4-AM (Invitrogen)+2.5 mM probenecid (Invitrogen) for fluorescence or Coelenterazine (Biosynth)+Tyrode's buffer for luminescence) were added for 1 hour (fluorescence) or 3 hours (luminescence) at 37° C. […]
Activation of the bitter taste receptor was determined by detecting a change in intracellular calcium levels as measured by fluorescence or luminescence of the calcium sensitive fluorescent dye or luminescent photoprotein. […] A FLIPR® Tetra system was used to measure fluorescence or luminescence. […]

`CC(C)[C@@H]1CC[C@@H](C)C[C@H]1O` [Menthol]: in experiment [1], the EC50 (in general, the concentration at which the effect is half-maximal) was 1080 ± 216 µM.
`CCN(CC)CCCC(C)Nc1ccnc2cc(Cl)ccc12` (stereo not drawn) [Chloroquine]: the EC50 in experiment [2] came out at 81 ± 11 µM.
On to `CC(=O)OC(C)(C)/C=C/C(=O)[C@](C)(O)[C@H]1[C@H](O)C[C@@]2(C)[C@@H]3CC=C4[C@@H](C[C@H](O)C(=O)C4(C)C)[C@]3(C)C(=O)C[C@]12C` [Cucurbitacin B], for which, in experiment [3], the concentration giving a half-maximal response (EC50) was determined as 0.3 ± 0.034 µM.
As to `CC1COc2c(N3CCN(C)CC3)c(F)cc3c(=O)c(C(=O)O)cn1c23` (stereo not drawn) [Ofloxacin], the EC50 in experiment [4] is 232 ± 14 µM.
Take `c1cnc2c(c1)ccc1cccnc12` [1, 10 Phenanthroline, 1,10-phenanthroline]: the EC50 in experiment [5] worked out at 564 ± 114 µM.
For the compound `CCCc1cc(=O)[nH]c(=S)[nH]1` [Propylthiouracil], the EC50 in experiment [6] stood at 126 ± 23 µM.
